Tests used:
Test in all cases: In vitro cytotoxicity (SRB)
Assay type in all cases: cell-based, human
[1] = test system: NCI-H322M; details: NCI-H322M (Non-small cell lung); 48 h continuous drug exposure
Procedure: (§1) The compounds were evaluated for in vitro anticancer activity against sixty human tumour cells derived from nine cancer types (leukemia, non-small-cell lung, colon, CNS, melanoma, ovarian, prostate, and breast cancer) as shown in Table 1a. For each compound, dose response curves for each cell line were measured at a minimum of five concentrations at 10 fold dilutions. A protocol of 48 h continuous drug exposure was used and a sulforhodamine B (SRB) protein assay was used to estimate cell viability or growth. The concentration causing 50% cell growth inhibition (GI50), total cell growth inhibition (TGI 0% growth) and 50% cell death (LC50, −50% growth) compared with the control was calculated. The Log10 GI50 (concentration in mol/L causing 50% growth inhibition) values for Cinnamido-pyrrolo[2,1-c][1,4]benzodiazepine (8b) is listed in Table 2.

[2] = test system: SF-295; details: SF-295 (CNS); 48 h continuous drug exposure
Procedure: as §1

[3] = test system: A549/ATCC; details: A549/ATCC (Non-small cell lung); 48 h continuous drug exposure
Procedure: as §1

[4] = test system: TK-10; details: TK-10 (Renal); 48 h continuous drug exposure
Procedure: as §1

[5] = test system: SK-OV-3; details: SK-OV-3 (Ovarian); 48 h continuous drug exposure
Procedure: as §1

[6] = test system: CAKI-1; details: CAKI-1 (Renal); 48 h continuous drug exposure
Procedure: as §1

[7] = test system: NCI-H460; details: NCI-H460 (Non-small cell lung); 48 h continuous drug exposure
Procedure: as §1

[8] = test system: KM12; details: KM12 (Colon); 48 h continuous drug exposure
Procedure: as §1

[9] = test system: T-47D; details: T-47D (Breast); 48 h continuous drug exposure
Procedure: as §1

[10] = test system: OVCAR-4; details: OVCAR-4 (Ovarian); 48 h continuous drug exposure
Procedure: as §1

[11] = test system: EKVX; details: EKVX (Non-small cell lung); 48 h continuous drug exposure
Procedure: as §1

[12] = test system: MDA-MB-231/ATCC; details: MDA-MB-231/ATCC (Breast); 48 h continuous drug exposure
Procedure: as §1

[13] = test system: NCI-H23; details: NCI-H23 (Non-small cell lung); 48 h continuous drug exposure
Procedure: as §1

[14] = test system: NCI-H226; details: NCI-H226 (Non-small cell lung); 48 h continuous drug exposure
Procedure: as §1

[15] = test system: SK-MEL-28; details: SK-MEL-28 (Melanoma); 48 h continuous drug exposure
Procedure: as §1

[16] = test system: UACC-62; details: UACC-62 (Melanoma); 48 h continuous drug exposure
Procedure: as §1

[17] = test system: K-562; details: K-562 (Leukemia); 48 h continuous drug exposure
Procedure: as §1

[18] = test system: UACC-257; details: UACC-257 (Melanoma); 48 h continuous drug exposure
Procedure: as §1

[19] = test system: NCI/ADR-RES; details: NCI/ADR-RES (Breast); 48 h continuous drug exposure
Procedure: as §1

[20] = test system: HCT-15; details: HCT-15 (Colon); 48 h continuous drug exposure
Procedure: as §1

[21] = test system: CCRF-CEM; details: CCRF-CEM (Leukemia); 48 h continuous drug exposure
Procedure: as §1

[22] = test system: HL-60(TB); details: HL-60(TB) (Leukemia); 48 h continuous drug exposure
Procedure: as §1

[23] = test system: HCT-116; details: HCT-116 (Colon); 48 h continuous drug exposure
Procedure: as §1

[24] = test system: SNB-19; details: SNB-19 (CNS); 48 h continuous drug exposure
Procedure: as §1

[25] = test system: RXF 393; details: RXF 393 (Renal); 48 h continuous drug exposure
Procedure: as §1

[26] = test system: SW-620; details: SW-620 (Colon); 48 h continuous drug exposure
Procedure: as §1

[27] = test system: SN12C; details: SN12C (Renal); 48 h continuous drug exposure
Procedure: as §1

[28] = test system: HS 578T; details: HS 578T (Breast); 48 h continuous drug exposure
Procedure: as §1

[29] = test system: M14; details: M14 (Melanoma); 48 h continuous drug exposure
Procedure: as §1

[30] = test system: OVCAR-5; details: OVCAR-5 (Ovarian); 48 h continuous drug exposure
Procedure: as §1

**Q.** How did the GI50 [1] turn out when COc1cc(/C=C/C(=O)N2CCN(C(=O)c3cc(OC)c(OC)c(OC)c3)CC2)ccc1OCCCOc1cc2c(cc1OC)C(=O)N1CCC[C@H]1C=N2 [8b, 7-methoxy-8-{3-(2-methoxy-4-(E)-3-oxo-3-[4-(3,4,5-trimethoxybenzoyl)piperazino]-1-propenylphenoxy)propoxy}-(11aS)-2,3,5,11^a-tetrahydro-5H-pyrrolo[2,1-c][1,4]benzo-diazepine-5-one] was run?
**A.** Its GI50 is 3070 nM.

**Q.** And the GI50 [2]?
**A.** Its GI50 is 10 nM.

**Q.** What about the GI50 [3] of the same compound?
**A.** The GI50 was 480 nM.

**Q.** And the GI50 [4]?
**A.** Its GI50 is 690 nM.

**Q.** And the GI50 [5]?
**A.** Its GI50 is 490 nM.

**Q.** What about the GI50 [6] of the same compound?
**A.** The GI50 was 1120 nM.

**Q.** And the GI50 [7]?
**A.** Its GI50 is 330 nM.

**Q.** What about the GI50 [8] of the same compound?
**A.** Its GI50 is 280 nM.

**Q.** What about the GI50 [9] of the same compound?
**A.** The GI50 was 150 nM.

**Q.** And the GI50 [10]?
**A.** The GI50 was 2200 nM.

**Q.** And the GI50 [11]?
**A.** The GI50 was 860 nM.

**Q.** And the GI50 [12]?
**A.** Its GI50 is 230 nM.

**Q.** And the GI50 [13]?
**A.** Its GI50 is 320 nM.

**Q.** What about the GI50 [14] of the same compound?
**A.** Its GI50 is 250 nM.

**Q.** What about the GI50 [15] of the same compound?
**A.** The GI50 was 210 nM.

**Q.** And the GI50 [16]?
**A.** The GI50 was 170 nM.

**Q.** And the GI50 [17]?
**A.** The GI50 was 150 nM.

**Q.** And the GI50 [18]?
**A.** The GI50 was 270 nM.

**Q.** What about the GI50 [19] of the same compound?
**A.** Its GI50 is 1470 nM.

**Q.** And the GI50 [20]?
**A.** Its GI50 is 3390 nM.

**Q.** And the GI50 [21]?
**A.** Its GI50 is 250 nM.

**Q.** What about the GI50 [22] of the same compound?
**A.** Its GI50 is 250 nM.

**Q.** What about the GI50 [23] of the same compound?
**A.** Its GI50 is 200 nM.

**Q.** What about the GI50 [24] of the same compound?
**A.** Its GI50 is 330 nM.

**Q.** What about the GI50 [25] of the same compound?
**A.** Its GI50 is 200 nM.

**Q.** And the GI50 [26]?
**A.** Its GI50 is 190 nM.

**Q.** What about the GI50 [27] of the same compound?
**A.** Its GI50 is 330 nM.

**Q.** What about the GI50 [28] of the same compound?
**A.** Its GI50 is 310 nM.

**Q.** And the GI50 [29]?
**A.** Its GI50 is 370 nM.

**Q.** And the GI50 [30]?
**A.** Its GI50 is 290 nM.

From patent US8722665B2, “Cinnamido-pyrrolo[2,1-C][1,4]benzodiazepines as potential anticancer agents and process for the preparation thereof” (Council of Scientific & Industrial Research, priority 2008, dated 2014)
